Assay results from US11939311B2, “Acid-labile surfactants” (Promega Corporation, priority 2019, dated 2024).

Tests used:
[1] = Thermal stability, LCMS (% remaining at 95° C. for 1 h); settings: 20 mM DMSO stock diluted 100-times into Tris-based PCR buffer
Procedure: To test for thermal stability (% remaining at 95° C. for 1 h), 20 mM stock solutions of example compounds in DMSO were prepared. The stock solutions were diluted 100-times into a Tris-based PCR buffer and heated to 95° C. for 1 hour in a thermocycler. The solutions were then analyzed by LCMS.
(§1) Compound purity and percent remaining were determined by integrating peaks in the total ion chromatogram using LCMS. Compound peaks were identified in negative mode using the molecular weight without sodium. The mobile phase of acetonitrile and water contained 10 mM ammonium acetate using a Synergi Max-RP column, 50×4.6 mm, 2.5 microns.

[2] = Acid stability in 2% TFA, LCMS; settings: 3 mM stock diluted 6-times to 2% TFA-NanoPure water
Procedure: To test for acid stability, a 3% stock solution (9 mg/300 μL) of each example compound was prepared in NanoPure water. A secondary 3 mM stock solution was prepared in NanoPure water. The secondary stock was diluted 6-times in NanoPure water as a control or diluted 6-times into 2.4% TFA-NanoPure water to 2% TFA-NanoPure water for the acid stability experiment. The solutions were heated to 40° C. for 1 hour and analyzed by LCMS.
as §1

Trypsin Gold (Promega) = target: T1, Trypsin Gold (Promega) (Sus scrofa, UniProt P00761); assay: Trypsin compatibility with the trypsin-specific substrate BAEE; type: biochemical; settings: 0.1% surfactant, 200 μM BAEE; for Slope: 0.2 μg Trypsin Gold, absorbance at 253 nm every minute over 10 minutes; for % Trypsin Activity: compared to control of trypsin without surfactant
T1 construct: purchased Promega
T1 sequence (P00761 9-231): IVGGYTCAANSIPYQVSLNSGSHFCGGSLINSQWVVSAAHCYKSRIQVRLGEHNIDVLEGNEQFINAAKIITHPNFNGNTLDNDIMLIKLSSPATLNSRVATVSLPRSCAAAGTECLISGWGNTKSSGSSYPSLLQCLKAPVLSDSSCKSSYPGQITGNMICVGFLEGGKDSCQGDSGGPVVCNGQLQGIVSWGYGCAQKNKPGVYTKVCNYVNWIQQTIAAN
Procedure: Compatibility of the different compounds with trypsin was tested using a trypsin-specific substrate, benzoyl-L-arginine ethyl ester hydrochloride (BAEE). 4% stock solutions (12 mg/300 μL) of example compounds were prepared in NanoPure water. The stock solution was diluted 40 times in 50 mM ammonium bicarbonate, pH 7.8 (0.1% final) with 200 μM of BAEE. The entire sample was transferred to an individual well in a 96-well UV-compatible microplate. The absorbance of the sample was measured at 253 nm using a TECAN M1000 plate reader. After 2 minutes, 0.2 μg of Trypsin Gold (Promega) was added to the reaction and absorbance at 253 nm was monitored every minute over a period of 10 minutes. The resulting activity measurement was compared to the control of trypsin without surfactant present. Trypsin is the most commonly used protease for the digestion of protein mass spectrometry samples. The results from this experiment indicate that the compounds have a minimal effect on trypsin activity and can be used during the sample digestion step.

| % remaining after 1 hour at 95° C. in Polymerase Buffer C [1] | % remaining after 1 h at 40° C. in 2% TFA [2] | Slope (Trypsin Gold (Promega)) | % Trypsin Activity (Trypsin Gold (Promega)) | SMILES |
| --- | --- | --- | --- | --- |
| 89.3% | 0% |  |  | CCCCCCCCCCC1(C)OCC(COC(=O)NCCCS(=O)(=O)[O-])O1.[Na+] (stereo not shown) [AF-0045, Sodium 3-((((2-decyl-2-methyl-1,3-dioxolan-4-yl)methoxy)carbonyl)amino)propane-1-sulfonate] |
| >99% | 22% |  |  | CCCCCCCCCCCC1OCC(COC(=O)Nc2ccc(N(CCCS(=O)(=O)[O-])CCCS(=O)(=O)[O-])cc2)O1.[Na+].[Na+] (stereo not shown) [CS-0843, Sodium 3,3′-((4-((((2-undecyl-1,3-dioxolan-4-yl)methoxy)carbonyl)amino)phenyl)-azanediyl)bis(propane-1-sulfonate)] |
| 2.5% | 42% |  |  | CCCCCOC(C)(COC(=O)Nc1ccc(N(CCCS(=O)(=O)[O-])CCCS(=O)(=O)[O-])cc1)OCCCCC.[Na+].[Na+] [CS-0853, Sodium 3,3′-((4-(((2,2-bis(pentyloxy)propoxy)carbonyl)amino)phenyl)azanediyl) bis(propane-1-sulfonate)] |
| 83.6% | Not soluble |  |  | CCCCCCCCCCCC1(C)OCC(COC(=O)NCC(O)CS(=O)(=O)[O-])O1.[Na+] (stereo not shown) [HW-0797, Sodium 2-hydroxy-3-((((2-methyl-2-undecyl-1,3-dioxolan-4-yl)methoxy)carbonyl)amino)propane-1-sulfonic Acid] |
| 94.1% | Not soluble |  |  | CCCCCCCCCCC1OCC(COC(=O)NCC(O)CS(=O)(=O)[O-])O1.[Na+] (stereo not shown) [HW-0801, Sodium 3-((((2-decyl-1,3-dioxolan-4-yl)methoxy)carbonyl)amino)-2-hydroxypropane-1-sulfonic Acid] |
| 94.2% | Not soluble |  |  | CCCCCCCCCCCC1OCC(COC(=O)NCC(O)CS(=O)(=O)[O-])O1.[Na+] (stereo not shown) [HW-0805, Sodium 2-hydroxy-3-((((2-undecyl-1,3-dioxolan-4-yl)methoxy)carbonyl)amino)propane-1-sulfonate] |
| Not soluble | Not soluble |  |  | CCCCCCCCCCCCC1OCC(COC(=O)NCC(O)CS(=O)(=O)[O-])O1.[Na+] (stereo not shown) [HW-0807, Sodium 3-((((2-dodecyl-1,3-dioxolan-4-yl)methoxy)carbonyl)amino)-2-hydroxypropane-1-sulfonic Acid] |
| 95.2% | 1% |  |  | CCCCCCCCCCC1OCC(COC(=O)NCCCS(=O)(=O)[O-])O1.[Na+] (stereo not shown) [JRW-1564, Sodium 3-((((2-decyl-1,3-dioxolan-4-yl)methoxy)carbonyl)amino)propane-1-sulfonate] |
| 95.7% | 1% |  |  | CCCCCCCCCCCC1OCC(COC(=O)NCCCS(=O)(=O)[O-])O1.[Na+] (stereo not shown) [JRW-1565, Sodium 3-((((2-undecyl-1,3-dioxolan-4-yl)methoxy)carbonyl)amino)propane-1-sulfonate] |
| 95.0% | 0% | 0.0133 | 92% | CCCCCCCCCCCC1(C)OCC(COC(=O)NCCCS(=O)(=O)[O-])O1.[Na+] (stereo not shown) [JRW-1573, Sodium 3-((((2-methyl-2-undecyl-1,3-dioxolan-4-yl)methoxy)carbonyl)amino)propane-1-sulfonate] |
| 92.8% | 4% |  |  | CCCCCCCCCCCCC1OCC(COC(=O)NCCCS(=O)(=O)[O-])O1.[Na+] (stereo not shown) [JRW-1574, Sodium 3-((((2-dodecyl-1,3-dioxolan-4-yl)methoxy)carbonyl)amino)propane-1-sulfonate] |
| 93.8% | 0% |  |  | CCCCCC1(CCCCC)OCC(COC(=O)NCC(O)CS(=O)(=O)[O-])O1.[Na+] (stereo not shown) [JZ-0164, Sodium 3-((((2,2-dipentyl-1,3-dioxolan-4-yl)methoxy)carbonyl)amino)-2-hydroxypropane-1-sulfonate] |
| 99.4% | 0% |  |  | CCCCCC1(CCCCC)OCC(COC(=O)NCCCS(=O)(=O)[O-])O1.[Na+] (stereo not shown) [JZ-0177, Sodium 3-((((2,2-dipentyl-1,3-dioxolan-4-yl)methoxy)carbonyl)amino)propane-1-sulfonate] |
| 83.9% | 100% |  |  | CCCCCCC1(CCCCCC)OCC(COC(=O)NCC(O)CS(=O)(=O)[O-])O1.[Na+] (stereo not shown) [JZ-0179, Sodium 3-((((2,2-dihexyl-1,3-dioxolan-4-yl)methoxy)carbonyl)amino)-2-hydroxypropane-1-sulfonate] |
| 5.4% |  |  |  | CCCCCOC(C)(COC(=O)NCCCS(=O)(=O)[O-])OCCCCC.[Na+] [RBK-0168] |
| 6.0% |  |  |  | CCCCCCOC(C)(COC(=O)NCCCS(=O)(=O)[O-])OCCCCCC.[Na+] [RBK-0169] |
| 88.3% | 0% | 0.0107 | 74% | CCCCCCCC1(CCCCCCC)OCC(COC(=O)NCCCS(=O)(=O)[O-])O1.[Na+] (stereo not shown) [RBK-0170] |
| 13.1% |  |  |  | CCCCCOC(C)(COC(=O)NCC(O)CS(=O)(=O)[O-])OCCCCC.[Na+] (stereo not shown) [RBK-0171] |
| 8.2% |  |  |  | CCCCCCOC(C)(COC(=O)NCC(O)CS(=O)(=O)[O-])OCCCCCC.[Na+] (stereo not shown) [RBK-0172] |
| 81.2% | Not soluble |  |  | CCCCCCCC1(CCCCCCC)OCC(COC(=O)NCC(O)CS(=O)(=O)[O-])O1.[Na+] (stereo not shown) [RBK-0173] |
| 93.6% | 0% |  |  | CCCCCCCCCCCC1(C)OCC(COC(=O)Nc2ccc(N(CCCS(=O)(=O)[O-])CCCS(=O)(=O)[O-])cc2)O1.[Na+].[Na+] (stereo not shown) [SL-1735, Sodium 3,3′-((4-((((2-methyl-2-undecyl-1,3-dioxolan-4-yl)methoxy)carbonyl)amino)phenyl)azanediyl)bis(propane-1-sulfonate)] |
| 102.9% | 0% |  |  | CCCCCCC1(CCCCCC)OCC(COC(=O)NCCCS(=O)(=O)[O-])O1.[Na+] (stereo not shown) [TU-1179, Sodium 3-((((2,2-dihexyl-1,3-dioxolan-4-yl)methoxy)carbonyl)amino)propane-1-sulfonate] |

| SMILES | % remaining after 1 hour at 95° C. in Polymerase Buffer C [1] | % remaining after 1 h at 40° C. in 2% TFA [2] | Slope (Trypsin Gold (Promega)) | % Trypsin Activity (Trypsin Gold (Promega)) |
| --- | --- | --- | --- | --- |
| CC(COC(=O)NCCCS(=O)(=O)[O-])(OCCC(F)(F)C(F)(F)C(F)(F)C(F)(F)F)OCCC(F)(F)C(F)(F)C(F)(F)C(F)(F)F.[Na+] [ZZ-0842, Sodium 3-(((2,2-bis((3,3,4,4,5,5,6,6,6-nonafluorohexyl)oxy)propoxy)carbonyl)amino)propane-1-sulfonate] | >99% | 0% |  |  |
| CC(COC(=O)NCC(O)CS(=O)(=O)[O-])(OCCC(F)(F)C(F)(F)C(F)(F)C(F)(F)C(F)(F)C(F)(F)F)OCCC(F)(F)C(F)(F)C(F)(F)C(F)(F)C(F)(F)C(F)(F)F.[Na+] (stereo not shown) [ZZ-0846, Sodium 3-(((2,2-bis((3,3,4,4,5,5,6,6,7,7,8,8,8-tridecafluorooctyl)oxy)propoxy)carbonyl)amino)-2-hydroxypropane-1-sulfonate] | 93.4% | 2% |  |  |
| CC(COC(=O)NCCCS(=O)(=O)[O-])(OCCC(F)(F)C(F)(F)C(F)(F)C(F)(F)C(F)(F)C(F)(F)F)OCCC(F)(F)C(F)(F)C(F)(F)C(F)(F)C(F)(F)C(F)(F)F.[Na+] [ZZ-0849, Sodium 3-(((2,2-bis((3,3,4,4,5,5,6,6,7,7,8,8,8-tridecafluorooctyl)oxy)propoxy)carbonyl)amino)propane-1-sulfonate] | >99% | 2% |  |  |
| CC(COC(=O)NCC(O)CS(=O)(=O)[O-])(OCCC(F)(F)C(F)(F)C(F)(F)C(F)(F)F)OCCC(F)(F)C(F)(F)C(F)(F)C(F)(F)F.[Na+] (stereo not shown) [ZZ-0850, Sodium 3-(((2,2-bis((3,3,4,4,5,5,6,6,6-nonafluorohexyl)oxy)propoxy)carbonyl)amino)-2-hydroxypropane-1-sulfonate] | 90.5% | 0% |  |  |
